According to ChEMBL document CHEMBL4627246, “Pyroglutamide-Based P2X7 Receptor Antagonists Targeting Inflammatory Bowel Disease” (J Med Chem, 2020):

What was measured:
Assay type in all cases: cell-based
[1] = system: CCRF-CEM; experiment: Cytotoxicity against human CCRF-CEM cells assessed as effect on cell growth at 10 uM incubated for 48 hrs by sulforhodamine B assay
[2] = system: SR; experiment: Cytotoxicity against human SR cells assessed as effect on cell growth at 10 uM incubated for 48 hrs by sulforhodamine B assay
[3] = system: MOLT-4; experiment: Cytotoxicity against human MOLT4 cells assessed as effect on cell growth at 10 uM incubated for 48 hrs by sulforhodamine B assay; settings: molt-4, 48 h
[4] = system: K562; experiment: Cytotoxicity against human K562 cells assessed as effect on cell growth at 10 uM incubated for 48 hrs by sulforhodamine B assay; settings: k562, 48 h
[5] = system: NCI-H322M; experiment: Cytotoxicity against human NCI-H322M cells assessed as effect on cell growth at 10 uM incubated for 48 hrs by sulforhodamine B assay
[6] = system: HCC 2998; experiment: Cytotoxicity against human HCC2998 cells assessed as effect on cell growth at 10 uM incubated for 48 hrs by sulforhodamine B assay; settings: hcc 2998, 48 h
[7] = system: HCT-116; experiment: Cytotoxicity against human HCT116 cells assessed as effect on cell growth at 10 uM incubated for 48 hrs by sulforhodamine B assay; settings: hct-116, 48 h
[8] = system: KM12; experiment: Cytotoxicity against human KM12 cells assessed as effect on cell growth at 10 uM incubated for 48 hrs by sulforhodamine B assay; settings: km12, 48 h
[9] = system: SNB-19; experiment: Cytotoxicity against human SNB19 cells assessed as effect on cell growth at 10 uM incubated for 48 hrs by sulforhodamine B assay; settings: snb-19, 48 h
[10] = system: LOX IMVI; experiment: Cytotoxicity against human LOXIMVI cells assessed as effect on cell growth at 10 uM incubated for 48 hrs by sulforhodamine B assay
[11] = system: MDA-MB-435; experiment: Cytotoxicity against human MDA-MB-435 cells assessed as effect on cell growth at 10 uM incubated for 48 hrs by sulforhodamine B assay; settings: mda-mb-435, 48 h
[12] = system: UACC-62; experiment: Cytotoxicity against human UACC62 cells assessed as effect on cell growth at 10 uM incubated for 48 hrs by sulforhodamine B assay; settings: uacc-62, 48 h
[13] = system: OVCAR-3; experiment: Cytotoxicity against human OVCAR3 cells assessed as effect on cell growth at 10 uM incubated for 48 hrs by sulforhodamine B assay; settings: ovcar-3, 48 h
[14] = system: SK-OV-3; experiment: Cytotoxicity against human SKOV3 cells assessed as effect on cell growth at 10 uM incubated for 48 hrs by sulforhodamine B assay; settings: sk-ov-3, 48 h
[15] = system: ACHN; experiment: Cytotoxicity against human ACHN cells assessed as effect on cell growth at 10 uM incubated for 48 hrs by sulforhodamine B assay
[16] = system: RXF 393; experiment: Cytotoxicity against human RXF393 cells assessed as effect on cell growth at 10 uM incubated for 48 hrs by sulforhodamine B assay; settings: rxf 393, 48 h
[17] = system: TK-10; experiment: Cytotoxicity against human TK10 cells assessed as effect on cell growth at 10 uM incubated for 48 hrs by sulforhodamine B assay; settings: tk-10, 48 h
[18] = system: DU-145; experiment: Cytotoxicity against human DU145 cells assessed as effect on cell growth at 10 uM incubated for 48 hrs by sulforhodamine B assay; settings: du-145, 48 h
[19] = system: MCF7; experiment: Cytotoxicity against human MCF7 cells assessed as effect on cell growth at 10 uM incubated for 48 hrs by sulforhodamine B assay; settings: mcf7, 48 h
[20] = system: MDA-MB-468; experiment: Cytotoxicity against human MDA-MB-468 cells assessed as effect on cell growth at 10 uM incubated for 48 hrs by sulforhodamine B assay; settings: mda-mb-468, 48 h

Measured: Activity

N#Cc1ccc(N2C(=O)CC[C@H]2C(=O)NCc2ccc(Cl)cc2Cl)cc1
Non-Toxic: all assays above

O=C1N[C@H](C(=O)NCc2ccc(Cl)cc2Cl)C/C1=N\O (stereo in doubt)
Non-Toxic: all assays above

CN1C(=O)CC[C@H]1C(=O)NCc1cccc(C(F)(F)F)c1Cl [GSK1482160]
Non-Toxic: all assays above

O=C(NCCc1ccccc1)[C@@H]1CCC(=O)N1Cc1ccc(Cl)cc1Cl
Non-Toxic: all assays above

O=C(NCc1ccc(Cl)cc1Cl)[C@@H]1CCC(=O)N1c1ccc(Cl)cc1Cl
Non-Toxic: all assays above

CN1CCN(/C=C2\C[C@@H](C(=O)NCc3ccc(Cl)cc3Cl)N(c3cccs3)C2=O)CC1
Non-Toxic: all assays above

O=C(NCCc1ccccc1)[C@@H]1CCC(=O)N1Cc1ccc(Br)cc1
Non-Toxic: all assays above

O=C(NCCc1ccc(Cl)cc1Cl)[C@@H]1CCC(=O)N1c1ccccc1
Non-Toxic: all assays above

COc1ccc(N2C(=O)[C@@H]3C/C(=C\N(C)C)C(=O)N3C2N(C)C)cc1 (stereo not given in full)
Non-Toxic: all assays above

CCCCCCN1C(=O)[C@@H]2C/C(=C\N(C)C)C(=O)N2C1N(C)C (stereo not given in full)
Non-Toxic: all assays above

CN(Cc1ccccc1)C(=O)[C@@H]1CCC(=O)N1Cc1ccc(Cl)cc1Cl
Non-Toxic: all assays above

O=C(NCc1ccccc1Cl)[C@@H]1CCC(=O)N1Cc1ccccc1Cl
Non-Toxic: all assays above

COc1cc(CNC(=O)[C@@H]2CCC(=O)N2)cc(OC)c1OC
Non-Toxic: all assays above

O=C(NCc1ccccc1Cl)[C@@H]1CCC(=O)N1Cc1ccccc1
Non-Toxic: all assays above
